Test results taken from patent US7868028B2 (priority 2002, dated 2011).
“And” between values parts separate entries of the source, which are not always exact repeats. Equal entries are not always repeated. Where two headings read alike, the source gives them in different places.

Key:
[1] = test system: voltage-gated sodium channel (site 1, [3H]Saxitoxin binding); parameters: species or system rat; as to % inhibition: test concentration or dose not given here
Male Sprague-Dawley rats = conditions: rat, in vivo; also: test concentration or dose not given here
[2] = target: voltage-gated sodium channel; conditions: cited from earlier work

Structure (SMILES)	% inhibition [1]	IC50 [1]	Average % MPE 5 minutes (Male Sprague-Dawley rats)	Average % MPE Day 4 (Male Sprague-Dawley rats)	Average % MPE 5 minutes (Male Sprague-Dawley rats; hydrobromide)	Kd [2]
Cl.N=c1n(Cc2ccccc2)c2ccccc2n1CC(O)c1ccc(Cl)cc1 (stereo not drawn) [Compound 7]	51%	60 µM	100 % MPE	32 % MPE	–	–
Cl.N=c1n(Cc2ccccc2)c2ccccc2n1CC(O)COc1ccc(Cl)cc1 (stereo not drawn) [Compound 1]	59%	15 µM	100 % MPE	3 % MPE	–	–
Cl.N=c1n(Cc2ccccc2)c2ccccc2n1CC(O)c1ccccc1 (racemic) [Compound 5]	38%	41 µM	100 % MPE	7 % MPE	–	–
CCn1c(=N)n(CC(O)c2ccc(Cl)c(Cl)c2)c2ccccc21.Cl (stereo not drawn) [Compound 9]	46%	89 µM	100 % MPE	34 % MPE	–	–
Br.N=c1n(Cc2ccccc2)c2ccccc2n1CC(O)COc1ccccc1 (stereo not drawn) [Compound 3, 1-benzyl-2-imino-3-(2-hydroxy-3-phenoxypropyl)benzimidazole hydrobromide]	52%	21 µM	–	–	76 % MPE and 100 % MPE	–
Br.N=c1n(Cc2ccc(F)cc2)c2ccccc2n1CC(O)COc1ccccc1 (racemic) [Compound 70]	26%	97 µM	83 % MPE	4 % MPE	–	–
Br.COc1ccc(Cn2c(=N)n(CC(O)COc3ccccc3)c3ccccc32)cc1 (racemic) [Compound 78]	17%	67 µM	11 % MPE	−4 % MPE	–	–
Cl.N=c1n(Cc2ccccc2)c2ccccc2n1CC(O)c1ccc(Cl)c(Cl)c1 (racemic) [Compound 2]	46%	21 µM	100 % MPE	1 % MPE	–	–
Cc1ccc(Cn2c(=N)n(CC(O)c3ccc(Cl)c(Cl)c3)c3ccccc32)cc1.Cl (stereo not drawn) [Compound 11]	48%	155 µM	34 % MPE	18 % MPE	–	–
Cl.N=c1n(Cc2ccccc2)c2ccccc2n1CC(O)c1cccs1 (racemic) [Compound 6]	52%	43 µM	93 % MPE and 80 % MPE and 100 % MPE	–	–	–
CCCCn1c(=N)n(CC(O)COc2ccccc2)c2ccccc21.Cl (racemic) [Compound 8]	41%	87 µM	100 % MPE	–	–	–
Cl.N=c1n(CCN2CCCCC2)c2ccccc2n1CC(O)COc1ccccc1 (racemic) [Compound 22]	14%	210 µM	100 % MPE	–	–	–
Br.N=c1n(Cc2ccccc2)c2ccccc2n1CC(O)COCc1ccccc1 (stereo not drawn) [Compound 71]	34%	30 µM	100 % MPE	2 % MPE	–	–
NC1=N[C@H](O)[C@H]2[C@H]3O[C@]4(O)O[C@@H]([C@@H](O)[C@@]2(N1)[C@@H]4O)[C@]3(O)CO [TTX, tetrodotoxin]	–	–	–	–	–	0.003 to 0.005 µM
Cc1ccc(Cn2c(=N)n(CC(O)COc3ccccc3)c3ccccc32)cc1.Cl (racemic) [Compound 4]	47%	21 µM	100 % MPE	−2 % MPE	–	–
CCCCn1c(=N)n(CC(O)COc2ccc(Cl)cc2)c2ccccc21.Cl (racemic) [Compound 10]	42%	96 µM	26 % MPE	19 % MPE	–	–
